Converted amounts (≈) assume the structure as drawn.
Test system: Mycobacterium tuberculosis
Assay: Antimycobacterial activity against Mycobacterium tuberculosis H37Rv by agar dilution method
Format: functional

| SMILES | MIC |
| --- | --- |
| O=C1Nc2ccc([N+](=O)[O-])cc2[C@]12N1CSC[C@H]1[C@H](c1cccc(Cl)c1Cl)[C@]21Cc2ccccc2C1=O | 2.8 µg/mL (≈ 5.07 µM) |
| Cc1ccc([C@H]2[C@@H]3CSCN3[C@@]3(C(=O)Nc4ccccc43)[C@@]23Cc2ccccc2C3=O)cc1 | > 55.2 µg/mL |
| O=C1Nc2ccccc2[C@]12N1CSC[C@H]1[C@H](c1ccc(Cl)cc1)[C@]21Cc2ccccc2C1=O | 52.9 µg/mL (≈ 112 µM) |
| COc1ccc([C@H]2[C@@H]3CSCN3[C@@]3(C(=O)Nc4ccccc43)[C@@]23Cc2ccccc2C3=O)cc1 | > 53.4 µg/mL |
| O=C1Nc2ccccc2[C@]12N1CSC[C@H]1[C@H](c1ccc(F)cc1)[C@]21Cc2ccccc2C1=O | 13.7 µg/mL (≈ 30 µM) |
| O=C1Nc2ccccc2[C@]12N1CSC[C@H]1[C@H](c1ccc(Br)cc1)[C@]21Cc2ccccc2C1=O | 24.2 µg/mL (≈ 46.8 µM) |
| O=C1Nc2ccccc2[C@]12N1CSC[C@H]1[C@H](c1ccc([N+](=O)[O-])cc1)[C@]21Cc2ccccc2C1=O | 12.9 µg/mL (≈ 26.7 µM) |
| O=C1Nc2ccccc2[C@]12N1CSC[C@H]1[C@H](c1ccccc1Cl)[C@]21Cc2ccccc2C1=O | 26.4 µg/mL (≈ 55.8 µM) |
| Cc1ccccc1[C@H]1[C@@H]2CSCN2[C@@]2(C(=O)Nc3ccccc32)[C@@]12Cc1ccccc1C2=O | > 55.2 µg/mL |
| O=C1Nc2ccccc2[C@]12N1CSC[C@H]1[C@H](c1cccc(Cl)c1Cl)[C@]21Cc2ccccc2C1=O | 12.3 µg/mL (≈ 24.2 µM) |
| O=C1Nc2ccccc2[C@]12N1CSC[C@H]1[C@H](c1cccs1)[C@]21Cc2ccccc2C1=O | 56.2 µg/mL (≈ 126 µM) |
| O=C1Nc2ccc(Cl)cc2[C@]12N1CSC[C@H]1[C@H](c1ccc(Cl)cc1)[C@]21Cc2ccccc2C1=O | 24.6 µg/mL (≈ 48.5 µM) |
| Cc1ccc([C@H]2[C@@H]3CSCN3[C@@]3(C(=O)Nc4ccc(Cl)cc43)[C@@]23Cc2ccccc2C3=O)cc1 | 51.3 µg/mL (≈ 105 µM) |
| COc1ccc([C@H]2[C@@H]3CSCN3[C@@]3(C(=O)Nc4ccc(Cl)cc43)[C@@]23Cc2ccccc2C3=O)cc1 | > 49.7 µg/mL |
| O=C1Nc2ccc(Cl)cc2[C@]12N1CSC[C@H]1[C@H](c1ccc(F)cc1)[C@]21Cc2ccccc2C1=O | 12.7 µg/mL (≈ 25.9 µM) |
| O=C1Nc2ccc(Cl)cc2[C@]12N1CSC[C@H]1[C@H](c1ccc(Br)cc1)[C@]21Cc2ccccc2C1=O | 11.3 µg/mL (≈ 20.5 µM) |

| SMILES | MIC |
| --- | --- |
| O=C1Nc2ccc(Cl)cc2[C@]12N1CSC[C@H]1[C@H](c1ccc([N+](=O)[O-])cc1)[C@]21Cc2ccccc2C1=O | 12.1 µg/mL (≈ 23.4 µM) |
| O=C1Nc2ccc(Cl)cc2[C@]12N1CSC[C@H]1[C@H](c1ccccc1Cl)[C@]21Cc2ccccc2C1=O | 12.3 µg/mL (≈ 24.2 µM) |
| Cc1ccccc1[C@H]1[C@@H]2CSCN2[C@@]2(C(=O)Nc3ccc(Cl)cc32)[C@@]12Cc1ccccc1C2=O | 25.7 µg/mL (≈ 52.8 µM) |
| Cc1ccc([C@H]2[C@@H]3CSCN3[C@@]3(C(=O)Nc4ccc([N+](=O)[O-])cc43)[C@@]23Cc2ccccc2C3=O)cc1 | 25.1 µg/mL (≈ 50.4 µM) |
| O=C1Nc2ccc(Cl)cc2[C@]12N1CSC[C@H]1[C@H](c1cccc(Cl)c1Cl)[C@]21Cc2ccccc2C1=O | 5.8 µg/mL (≈ 10.7 µM) |
| O=C1Nc2ccc(Cl)cc2[C@]12N1CSC[C@H]1[C@H](c1cccs1)[C@]21Cc2ccccc2C1=O | 52.2 µg/mL (≈ 109 µM) |
| O=C1Nc2ccc([N+](=O)[O-])cc2[C@]12N1CSC[C@H]1[C@H](c1ccc(Cl)cc1)[C@]21Cc2ccccc2C1=O | 24.1 µg/mL (≈ 46.5 µM) |
| COc1ccc([C@H]2[C@@H]3CSCN3[C@@]3(C(=O)Nc4ccc([N+](=O)[O-])cc43)[C@@]23Cc2ccccc2C3=O)cc1 | 24.3 µg/mL (≈ 47.3 µM) |
| O=C1Nc2ccc([N+](=O)[O-])cc2[C@]12N1CSC[C@H]1[C@H](c1ccc(F)cc1)[C@]21Cc2ccccc2C1=O | 3.1 µg/mL (≈ 6.18 µM) |
| O=C1Nc2ccc([N+](=O)[O-])cc2[C@]12N1CSC[C@H]1[C@H](c1ccc(Br)cc1)[C@]21Cc2ccccc2C1=O | 11.1 µg/mL (≈ 19.7 µM) |
| O=C1Nc2ccc([N+](=O)[O-])cc2[C@]12N1CSC[C@H]1[C@H](c1ccc([N+](=O)[O-])cc1)[C@]21Cc2ccccc2C1=O | 5.9 µg/mL (≈ 11.2 µM) |
| O=C1Nc2ccc([N+](=O)[O-])cc2[C@]12N1CSC[C@H]1[C@H](c1ccccc1Cl)[C@]21Cc2ccccc2C1=O | 12.1 µg/mL (≈ 23.4 µM) |
| Cc1ccccc1[C@H]1[C@@H]2CSCN2[C@@]2(C(=O)Nc3ccc([N+](=O)[O-])cc32)[C@@]12Cc1ccccc1C2=O | 25.1 µg/mL (≈ 50.4 µM) |
| CC[C@@H](CO)NCCN[C@@H](CC)CO [ETHAMBUTOL] | 7.6 µg/mL (≈ 37.2 µM) |
| NNC(=O)c1ccncc1 [ISONIAZID] | 0.4 µg/mL (≈ 2.92 µM) |
| CO[C@H]1/C=C/O[C@@]2(C)Oc3c(C)c(O)c4c(O)c(c(/C=N/N5CCN(C)CC5)c(O)c4c3C2=O)NC(=O)/C(C)=C\C=C\[C@H](C)[C@H](O)[C@@H](C)[C@@H](O)[C@@H](C)[C@H](OC(C)=O)[C@@H]1C [RIFAMPIN] | 0.1 µg/mL (≈ 0.122 µM) |
